Results on nine molecules are retold here after PubChem BioAssay (NCI).

The structures appear in SMILES notation.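 1) Cells in 96-well plates. 2) Compound, 48 h, 5 concentrations. 3) Linear interpolation between surrounding doses. 4) Unreached endpoint = highest concentration. GI50 is the concentration that inhibits growth by half. The concentration for full growth arrest is given as TGI.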 A value given as a limit tells only on which side of the number the result lay.

Among the test systems are OVCAR-4 ovarian; KM12 colon; LOX IMVI melanoma; HCT-15 colon; UACC-257 melanoma; CAKI-1 renal; SW-620 colon; DU-145 prostate; SK-MEL-5 melanoma; COLO 205 colon.
Holding throughout (assay): DTP human tumour cell line panel, 48 h

Turning to `Cc1cc(C)c(NC(=O)c2sc3nc4c(cc3c2N)C(=O)CCC4)c(C)c1`, the GI50 is 6.89 µM in the experiment on OVCAR-4 ovarian; 2.8 µM with KM12 colon; 5.39 µM in the experiment on LOX IMVI melanoma; 2.59 µM in the experiment with HCT-15 colon; 10 µM with UACC-257 melanoma; 2.66 µM with CAKI-1 renal. The GI50 with SW-620 colon is 2.87 µM; in the experiment with DU-145 prostate, 3.36 µM; with SK-MEL-5 melanoma, 0.998 µM; in the experiment with COLO 205 colon, 3.23 µM. Also, the TGI in the experiment on OVCAR-4 ovarian is > 100 µM; in the experiment with KM12 colon, > 100 µM; with LOX IMVI melanoma, > 100 µM; with HCT-15 colon, > 100 µM; in the experiment on UACC-257 melanoma, > 95.9 µM; in the experiment with CAKI-1 renal, > 100 µM. The concentration for total growth inhibition (TGI) was > 100 µM with SW-620 colon, > 100 µM in the experiment with DU-145 prostate, 13.8 µM with SK-MEL-5 melanoma and > 100 µM with COLO 205 colon.
Turning to `OCC1OC(n2cnc3c2NC=NC[C@H]3O)C(Cl)C1O` (some centres not stated), the concentration for total growth inhibition (TGI) in the experiment with OVCAR-4 ovarian, in the experiment on KM12 colon, with LOX IMVI melanoma, with HCT-15 colon, with UACC-257 melanoma and in the experiment with CAKI-1 renal was > 100 µM in each case. Besides, the TGI in the experiment on SW-620 colon, in the experiment on DU-145 prostate, in the experiment on SK-MEL-5 melanoma and with COLO 205 colon was > 100 µM in each case.
As for `c1ccc(Sc2ccc(Cc3nc4cc5ccccc5cc4[nH]3)cc2)cc1`, the GI50 in the experiment with OVCAR-4 ovarian is 57.5 µM; in the experiment with KM12 colon it was 2.21 µM; in the experiment with LOX IMVI melanoma it was 1.42 µM; in the experiment with HCT-15 colon, 0.205 µM; with UACC-257 melanoma it was 5.33 µM; in the experiment on CAKI-1 renal, 11.7 µM. Moreover, the GI50 was 8.38 µM with SW-620 colon, 23 µM in the experiment on DU-145 prostate, 2.88 µM with SK-MEL-5 melanoma and 10.1 µM in the experiment with COLO 205 colon. Moreover, the TGI in the experiment with OVCAR-4 ovarian was > 100 µM; with KM12 colon, 46.2 µM; with LOX IMVI melanoma, 29.1 µM; in the experiment with HCT-15 colon, 53.9 µM; with UACC-257 melanoma, 29.1 µM; with CAKI-1 renal, 48.8 µM. Further, the TGI was > 67.6 µM in the experiment with SW-620 colon, > 100 µM with DU-145 prostate, 18.4 µM in the experiment on SK-MEL-5 melanoma and 30.9 µM with COLO 205 colon.
For `COc1ccc(/C=C/c2c(C(=O)/C=C/c3ccccc3)c(C)nc3ccccc23)cc1`, the GI50 in the experiment on OVCAR-4 ovarian is 2.27 µM; in the experiment on KM12 colon, 1.77 µM; in the experiment with LOX IMVI melanoma it was 1.69 µM; in the experiment on HCT-15 colon, 1.38 µM; with UACC-257 melanoma, 1.7 µM; in the experiment on CAKI-1 renal, 1.41 µM. Further, the GI50 in the experiment with SW-620 colon is 2.12 µM; in the experiment on DU-145 prostate, 1.68 µM; in the experiment on SK-MEL-5 melanoma, 1.73 µM; in the experiment on COLO 205 colon, 1.76 µM. Besides, the TGI amounted to 6.85 µM in the experiment on OVCAR-4 ovarian; 3.52 µM in the experiment with KM12 colon; 3.08 µM with LOX IMVI melanoma; 3.77 µM with HCT-15 colon; 3.21 µM with UACC-257 melanoma; 2.82 µM with CAKI-1 renal. Moreover, the TGI amounted to 6.34 µM with SW-620 colon, 3.16 µM with DU-145 prostate, 3.13 µM with SK-MEL-5 melanoma and 3.5 µM in the experiment with COLO 205 colon.
Consider `COCC[C@H]1CCC/C=C/[C@@H]2C[C@H](O)C[C@H]2[C@H](O)/C=C/C(=O)O1`, for which the GI50 was 0.0528 µM in the experiment on OVCAR-4 ovarian; 0.034 µM in the experiment with KM12 colon; 0.0434 µM in the experiment on LOX IMVI melanoma; 0.314 µM with HCT-15 colon; 0.035 µM in the experiment with UACC-257 melanoma; 0.36 µM in the experiment with CAKI-1 renal. The GI50 in the experiment on SW-620 colon is 0.0572 µM; in the experiment on DU-145 prostate it was 0.445 µM; with SK-MEL-5 melanoma, 0.0172 µM; in the experiment with COLO 205 colon it was 0.0227 µM. Further, the concentration for total growth inhibition (TGI) in the experiment with KM12 colon is 0.118 µM; in the experiment on LOX IMVI melanoma, 0.179 µM; with HCT-15 colon, > 100 µM; in the experiment on SW-620 colon it was 0.258 µM; with DU-145 prostate it was > 100 µM; in the experiment with SK-MEL-5 melanoma, 0.0319 µM. In the experiment with COLO 205 colon, the concentration for total growth inhibition (TGI) came to 0.0472 µM.
For the molecule `NS(=O)(=O)c1ccc(-c2ccc3c(NC(=O)C4CC4)n[nH]c3c2)cc1`, the GI50 with OVCAR-4 ovarian, in the experiment on KM12 colon, in the experiment on LOX IMVI melanoma, with HCT-15 colon, in the experiment on UACC-257 melanoma and in the experiment with CAKI-1 renal was > 25 µM throughout. Further, the GI50 with SW-620 colon, in the experiment on DU-145 prostate, in the experiment with SK-MEL-5 melanoma and in the experiment on COLO 205 colon was > 25 µM in each case. Also, the concentration for total growth inhibition (TGI) in the experiment on OVCAR-4 ovarian, in the experiment with KM12 colon, in the experiment on LOX IMVI melanoma, with HCT-15 colon, with UACC-257 melanoma and in the experiment on CAKI-1 renal was > 25 µM in each case. The TGI with SW-620 colon, in the experiment with DU-145 prostate, with SK-MEL-5 melanoma and with COLO 205 colon was > 25 µM throughout.
For the molecule `COc1cc2ncnc(-n3ncc4cc(NC(=O)Nc5ccccc5)ccc43)c2cc1OC`, the GI50 is 1.01 µM in the experiment with OVCAR-4 ovarian; 0.207 µM with KM12 colon; 0.722 µM in the experiment with LOX IMVI melanoma; 0.579 µM with HCT-15 colon; 2.32 µM with UACC-257 melanoma; 2.08 µM in the experiment on CAKI-1 renal. The GI50 with SW-620 colon was 3.07 µM; with DU-145 prostate it was 0.867 µM; with SK-MEL-5 melanoma, 5.22 µM; in the experiment with COLO 205 colon, 1.32 µM. Besides, the TGI in the experiment with OVCAR-4 ovarian is 4.26 µM; in the experiment on KM12 colon, 5.27 µM; in the experiment on LOX IMVI melanoma it was 2.75 µM; with HCT-15 colon, 11.1 µM; in the experiment with UACC-257 melanoma, 5.13 µM; with CAKI-1 renal, 12.1 µM. Besides, the TGI worked out at 17.9 µM in the experiment on SW-620 colon, 11.4 µM in the experiment with DU-145 prostate, 21.3 µM in the experiment on SK-MEL-5 melanoma and 4.53 µM in the experiment on COLO 205 colon.
With `CC(C)c1ccc(-c2cc(-c3cn[nH]c3-c3ccccn3)ccn2)cc1`, the GI50 is 10.4 µM in the experiment on OVCAR-4 ovarian; 9.83 µM in the experiment on KM12 colon; 14.6 µM in the experiment with LOX IMVI melanoma; 8.65 µM in the experiment with HCT-15 colon; > 25 µM in the experiment with UACC-257 melanoma; 19.1 µM in the experiment with CAKI-1 renal. For the same molecule, the GI50 in the experiment with SW-620 colon was 18 µM; with DU-145 prostate it was 16 µM; in the experiment on SK-MEL-5 melanoma it was 6.65 µM; in the experiment on COLO 205 colon it was 13.3 µM. Also, the total growth inhibition concentration (TGI) in the experiment with OVCAR-4 ovarian, in the experiment with KM12 colon, in the experiment with LOX IMVI melanoma, in the experiment with HCT-15 colon, in the experiment with UACC-257 melanoma and with CAKI-1 renal was > 25 µM in each case. In addition, the total growth inhibition concentration (TGI) with SW-620 colon is > 25 µM; in the experiment on DU-145 prostate it was > 25 µM; in the experiment with SK-MEL-5 melanoma, > 16.6 µM; in the experiment on COLO 205 colon, > 25 µM.
`C=CCCCCC/C=C\[C@@H](O)C#CC#C/C=C/CO`: the GI50 was > 100 µM in the experiment on OVCAR-4 ovarian; 77.5 µM in the experiment with KM12 colon; 17.2 µM in the experiment on LOX IMVI melanoma; > 100 µM in the experiment with HCT-15 colon; > 100 µM in the experiment with UACC-257 melanoma; > 100 µM with CAKI-1 renal. The GI50 in the experiment with SW-620 colon was 48.2 µM; with DU-145 prostate, > 100 µM; with SK-MEL-5 melanoma, > 100 µM; in the experiment on COLO 205 colon it was > 100 µM. For the same molecule, the TGI with OVCAR-4 ovarian was > 100 µM; in the experiment with KM12 colon, > 100 µM; in the experiment with LOX IMVI melanoma, 32.1 µM; with HCT-15 colon it was > 100 µM; with UACC-257 melanoma, > 100 µM; in the experiment on CAKI-1 renal it was > 100 µM. In addition, the concentration for total growth inhibition (TGI) in the experiment on SW-620 colon, with DU-145 prostate, with SK-MEL-5 melanoma and in the experiment with COLO 205 colon was > 100 µM in each case.

By GI50 is commonly meant the concentration that inhibits growth by half. Usually TGI stands for the concentration at which net growth stops.
